Earlier results, collected in patent US12596089B2, “Devices, systems, and methods for antimicrobial susceptibility testing” (Avails Medical, Inc., priority 2022, dated 2026).

How the values were obtained:
[1] = system: CDC-650 strain of E. coli; conditions: stated as known
[2] = system: CDC-846 strain of E. coli; conditions: stated as known

Structure (SMILES): CO/N=C(\C(=O)N[C@@H]1C(=O)N2C(C(=O)O)=C(CSc3nc(=O)c(=O)[nH]n3C)CS[C@H]12)c1csc(N)n1 [ceftriaxone]
- susceptibility of the bacteria to the anti-infective [1]: highly susceptible
- susceptibility of the bacteria to the anti-infective [2]: resistant
